Reference: article PMC9909315, “SY-707, an ALK/FAK/IGF1R inhibitor, suppresses growth and metastasis of breast cancer cells” (Acta Biochimica et Biophysica Sinica, 2022)
Like-named read-outs stand apart in the source and are kept apart here.

Legend:
[1] = tested on: MCF-7 cells; test: Western blot for cleaved PARP; assay type: cell-based; conditions: MCF-7, various concentrations, 24 h
Description: (§1) Equal amounts of cell lysates were loaded onto 10% SDS-PAGE gel and separated by electrophoresis. Separated proteins were then electro-transferred onto polyvinylidene fluoride (PVDF) membranes (Millipore, Bedford, USA). After being blocked with Tris-buffered saline containing 0.1% Tween-20 (TBST) and 5% bovine serum albumin (BSA), the membranes were incubated with primary antibodies at room temperature for 2 hours or at 4°C, then washed with TBST, followed by treatment with horseradish peroxidase (HRP)-conjugated goat anti-rabbit IgG secondary antibody at room temperature for another 1 h. The targeted protein bands were visualized using an enhanced chemiluminescence (ECL) plus system (Thermo Fisher Scientific). Primary antibodies against phospho-FAK (3283, 1:1000 dilution), phospho-ERK (4377, 1:2000 dilution), phospho-AKT (4060, 1:2000 dilution), FAK (3285, 1:1000 dilution), AKT (6703, 1:1000 dilution) and β-Actin (5125, 1:10,0000 dilution) were purchased from Cell Signaling Technology (Beverly, USA) and the HRP-conjugated goat anti-rabbit IgG (ZDR-5306, 1:10,000 dilution) was purchased from Jackson (West Grove, USA ).
(§2) Cells were cultured and treated with SY-707 under the indicated concentrations (0.01, 0.1 and 1 μM respectively) for 24 h, then stained with Annexin-V and 7-AAD for cell apoptosis analysis by Guava flow cytometry.

[2] = tested on: T47D cells; test: Western blot for cleaved PARP; assay type: cell-based; conditions: various concentrations, 24 h
Description: as §1, §2

[3] = tested on: MCF-7 cells; test: Would healing (migration) assay; assay type: cell-based; conditions: MCF-7, 24 h, vs control
Description: (§3) Totally, 5×10 ^5 cells were plated into each well of 6-well plates, and cultured to 70%–80% confluence, then the cell monolayer was gently and slowly scratched with a new 1-mL pipette tip across the center of the well. After scratching, the wells were gently washed with PBS twice to remove the detached cells, and replenished with fresh medium containing indicated concentration of compounds. The treated cells were allowed to grow for additional 24 h, and images were capturedunder a microscope. The migration distance were calculated and analyzed to evaluate the effects of compounds.

[4] = tested on: T47D cells; test: Would healing (migration) assay; assay type: cell-based; conditions: 24 h, vs control
Description: as §3

[5] = tested on: phosphorylation of FAK at Tyr397; test: Western blot of FAK phosphorylation in T47D cells; assay type: cell-based; conditions: 1 h treatment
Description: as §1
Cells were cultured in 6-well plates and treated with the indicated concentrations of SY-707 for 1 h before stimulation with or without 100 ng/mL IGF1 for 10 min. Control cells received the drug vehicle with 0.1% DMSO. […]

[6] = tested on: phosphorylation of Pyk2 at Tyr402; test: Western blot of Pyk2 phosphorylation in MCF-7 cells; assay type: cell-based; conditions: MCF-7, 1 h treatment
Description: (§4) Equal amounts of cell lysates were loaded onto 10% SDS-PAGE gel and separated by electrophoresis. Separated proteins were then electro-transferred onto polyvinylidene fluoride (PVDF) membranes (Millipore, Bedford, USA). After being blocked with Tris-buffered saline containing 0.1% Tween-20 (TBST) and 5% bovine serum albumin (BSA), the membranes were incubated with primary antibodies at room temperature for 2 hours or at 4°C, then washed with TBST, followed by treatment with horseradish peroxidase (HRP)-conjugated goat anti-rabbit IgG secondary antibody at room temperature for another 1 h. The targeted protein bands were visualized using an enhanced chemiluminescence (ECL) plus system (Thermo Fisher Scientific). […]
(§5) Figure4 Inhibitory effects of SY-707 on the phosphorylation of FAK(A,B) Concentration-dependent inhibition of SY-707 on phosphorylation of FAK in T47D (A) and MCF-7 (B) cells. […] Cell lysates were analyzed by western blot analysis using specific antibodies against p-FAK, p-Pyk2, p-AKT and p-ERK respectively. […] Cell lysates were analyzed by western blot analysis using specific antibodies against p-IGF1R, p-STAT3, p-AKT and p-ERK respectively.

[7] = tested on: phosphorylation of IGF1R; test: Western blot of IGF1R phosphorylation in T47D cells after IGF1; assay type: cell-based; conditions: 1 h treatment, then 100 ng/mL IGF1 for 10 min, dose-dependent
Description: as §4, §5

[8] = Pharmacokinetic study; assay type: in vivo, beagle dogs; conditions: serum, Beagle dog, 5 mg/kg PO; for CL/F: read-out: Cl_F_obs (converted); for MRT inf: read-out: MRT INF_obs
Description: Female SD rats (5-6 weeks old) or beagle dogs were administrated with SY-707 at a single dose of 5 mg/kg, and blood samples were taken sequentially from 2 min to 24 h after compound administration. […] The serum samples were collected by centrifugation and stored at –80 °C. Compound concentrations in the sample serums were further analyzed with an API-4000 LC-MS/MS system (Applied Biosystem, Foster City, USA), and pharmacokinetic parameters ( T 1/2, T max, C max, AUC 0-INF, Cl_F_obs, MRT INF_obs, and F(%)) were calcuated using the WinNonlin software (version 6.2; WinNonlin Professional, Pharsight, USA).

[9] = Tissue distribution; assay type: in vivo; conditions: SD rats, oral 15 mg/kg; except the uterus and spleen
Description: In addition, SY-707 also had good clearance parameters and oral bioavailability in these two species.
Supplementary Figure S1. The tissue distribution profile of SY-707 Tissue distribution of SY-707 in SD rats was measured after oral administration of SY-707 (15 mg/kg).

[10] = tested on: T47D xenograft; test: T47D tumor xenograft study; assay type: in vivo, nude mice
Description: Due to the strong cell growth inhibition potency of SY-707, we firstly evaluate its in vivo anti-cancer activity in T47D xenograft model mice. In this model, mice were orally administered twice a day with vehicle or SY-707 at dose of 100, 50 or 25 mg/kg after tumor size reached 150–300 mm ^3.
Next, we evaluated the combination effects of SY-707 and paclitaxel (an approved drug for breast cancer therapy) in T47D xenograft model. Mice bearing T47D breast cancer were divided randomly into 4 groups: vehicle, SY-707 (100 mg/kg/day), paclitaxel (10 mg/kg/week), and SY-707 plus paclitaxel groups.

Question: Which results are given for COc1cc(N2CCC(N3CCN(C)CC3)CC2)ccc1Nc1nc2c(c(Nc3ccccc3S(=O)(=O)NC(C)C)n1)CCN2 [SY-707, N-isopropyl-2-((2-((2-methoxy-4-(4-(4-methylpiperazin-1-yl)piperidin-1-yl)phenyl)amino)-6,7-dihydro-5H-pyrrolo[2,3-d]pyrimidin-4-yl)amino)benzenesulfonamide]?
Answer: cleaved PARP [1]: markedly detected; cleaved PARP [2]: markedly detected; migration distance [3]: significantly decreased; migration distance [4]: significantly decreased; phosphorylation of FAK at Tyr397 [5]: dose-dependently suppressed; phosphorylation of Pyk2 at Tyr402 [6]: dose-dependently suppressed; phosphorylation of IGF1R [7]: block the phosphorylation; AUC(0-inf) ([8]; both sexes, All): 459 ng·h/mL; Cmax ([8]; both sexes, All): 36 ng/mL; Tmax ([8]; both sexes, All): 2.83 h; bioavailability ([8]; both sexes, All): 21.1%; half-life ([8]; both sexes, All): 9.72 h; CL/F ([8]; both sexes, All): 195 mL/min/kg; MRT inf ([8]; both sexes, All): 13.6 h; AUC(0-inf) ([8]; Female): 438 ng·h/mL; Cmax ([8]; Female): 34.2 ng/mL; Tmax ([8]; Female): 2.67 h; bioavailability ([8]; Female): 18.8%; half-life ([8]; Female): 10.1 h; CL/F ([8]; Female): 202 mL/min/kg; MRT inf ([8]; Female): 13.7 h; AUC(0-inf) ([8]; Male): 479 ng·h/mL; Cmax ([8]; Male): 37.8 ng/mL; Tmax ([8]; Male): 3 h; bioavailability ([8]; Male): 23.8%; half-life ([8]; Male): 9.33 h; CL/F ([8]; Male): 188 mL/min/kg; MRT inf ([8]; Male): 13.6 h; distribution in rat tissues (AUC 0–24 h) relative to plasma [9]: other organs had lower level of SY-707 than the plasma; tumor growth inhibition rate ([10]; 25 mg/kg orally twice a day, 21 days, P<0.05): 31%; tumor growth inhibition rate ([10]; 50 mg/kg orally twice a day, 21 days, P<0.05): 39%; tumor growth inhibition rate ([10]; 100 mg/kg orally twice a day, 21 days, P<0.01): 61%; tumor growth inhibition rate ([10]; combination study, SY-707 100 mg/kg/day alone, 24 days): 14%
